Assay results published in patent US12410160B2 (Gilead Sciences, Inc., priority 2021, dated 2025).

What was measured:
[1] = molecular target: KHK-C expressed in NRK-52E cells (Homo sapiens (Human), UniProt P50053); assay: KHK-C Cell-based Assay (EC50), NRK CTG, fructose-mediated ATP-depletion
human KHK-C = human KHK-C (Homo sapiens (Human), UniProt P50053); assay: KHK Biochemical Assay (IC50), ADP-Glo, KHK-C; conditions: average of at least two separate assays
Method in brief: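 His-tagged enzyme expressed in BL21 (DE3), Ni-NTA purified. Compounds, serially diluted 1:3 in DMSO, pre-incubated 30 min with enzyme in 50 mM Hepes pH 7.4, 140 mM KCl, 5 mM MgCl2, 0.01% Triton-X, then ATP and fructose added; 4 h at room temperature. ADP formation read by ADP-Glo luminescence.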

KHK-C expressed in NRK-52E cells, sequence (P50053 whole entry): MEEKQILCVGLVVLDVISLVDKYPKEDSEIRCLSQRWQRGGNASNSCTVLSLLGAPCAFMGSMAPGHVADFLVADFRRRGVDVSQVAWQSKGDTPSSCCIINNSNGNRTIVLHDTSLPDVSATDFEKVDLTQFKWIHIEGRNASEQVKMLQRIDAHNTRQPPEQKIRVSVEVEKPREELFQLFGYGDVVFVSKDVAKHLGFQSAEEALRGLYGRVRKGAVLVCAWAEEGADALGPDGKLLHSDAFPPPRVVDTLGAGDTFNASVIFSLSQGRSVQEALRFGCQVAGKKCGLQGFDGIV
human KHK-C, sequence (P50053 whole entry): as above

Row | EC50 [1] [nM] | IC50 (human KHK-C) [nM] | Structure (SMILES)
1 | 26.7 | 5 | C[C@H]1[C@H](O)CN1c1nc(-c2ccc(C3(N)COC3)c(F)c2)c2c(n1)C(F)(F)CC2 [Example 503, (2S,3R)-1-(4-(4-(3-aminooxetan-3-yl)-3-fluorophenyl)-7,7-difluoro-6,7-dihydro-5H-cyclopenta[d]pyrimidin-2-yl)-2-methylazetidin-3-ol]
2 | 11.9 | 2.4 | Cc1cc(-c2nc(N3C[C@@H](O)[C@@H]3C)nc3c2CCC3(F)F)ccc1C1(N)COC1 [Example 505, (2S,3R)-1-(4-(4-(3-aminooxetan-3-yl)-3-methylphenyl)-7,7-difluoro-6,7-dihydro-5H-cyclopenta[d]pyrimidin-2-yl)-2-methylazetidin-3-ol]
3 | > 5000 | > 5000 | C[C@H]1[C@H](O)CN1c1nc(-c2ccc(C3(N)COC3)nc2)c2c(n1)C(F)(F)CC2 [Example 506, (2S,3R)-1-(4-(6-(3-aminooxetan-3-yl)pyridin-3-yl)-7,7-difluoro-6,7-dihydro-5H-cyclopenta[d]pyrimidin-2-yl)-2-methylazetidin-3-ol]
4 | 125 | 13.6 | C[C@H]1[C@H](O)CN1c1nc(-c2ccc3c(c2)C(=O)N(C)CC3)c2c(n1)C(F)(F)CC2 [Example 600, 7-(7,7-difluoro-2-((2S,3R)-3-hydroxy-2-methylazetidin-1-yl)-6,7-dihydro-5H-cyclopenta[d]pyrimidin-4-yl)-2-methyl-3,4-dihydroisoquinolin-1(2H)-one]
5 | > 5000 | 95.1 | C[C@H]1[C@H](O)CN1c1nc2c(c(-c3ccc4c(c3)S(=O)(=O)CNC4=O)n1)CCC2 [Example 601, 7-(2-((2S,3R)-3-hydroxy-2-methylazetidin-1-yl)-6,7-dihydro-5H-cyclopenta[d]pyrimidin-4-yl)-2,3-dihydro-4H-benzo[e][1,3]thiazin-4-one 1,1-dioxide]
6 | 150 | 96.8 | C[C@H]1CCN1c1nc2c(c(-c3ccc4c(c3)CN(S(=O)(=O)CCO)CC4)n1)CCC2 [Example 605]
7 | 610 | 80.7 | C[C@H]1[C@H](O)CN1c1nc2c(c(-c3cccc(CNS(=O)(=O)C4CC4)c3)n1)CCC2 [Example 610]
8 | 92 | 32 | C[C@H]1[C@H](O)CN1c1nc(-c2ccc3c(c2)CN(S(C)(=O)=O)CC3)c2c(n1)C(F)(F)CC2 [Example 611, (2S,3R)-1-(7,7-difluoro-4-(2-(methylsulfonyl)-1,2,3,4-tetrahydroisoquinolin-7-yl)-6,7-dihydro-5H-cyclopenta[d]pyrimidin-2-yl)-2-methylazetidin-3-ol]
9 | 1.2 | 0.2 | CN1C(=O)N[C@]2(CCc3cc(-c4nc(N5CC[C@@H]5CF)nc5c4CCC5(F)F)ccc32)C1=O [Example 676, (5S)-5′-[7,7-difluoro-2-[(2R)-2-(fluoromethyl)azetidin-1-yl]-5,6-dihydroeyelopenta[d]pyrimidin-4-yl]-3-methyl-spiro[imidazolidine-5,1′-indane]-2,4-dione]
10 | 2.1 | 0.2 | CCN1C(=O)N[C@]2(CCc3cc(-c4nc(N5C[C@@H](O)[C@@H]5C)nc5c4CCC5(F)F)ccc32)C1=O [Example 685, (58)-5′-[7,7-difluoro-2-[(2S,3R)-3-hydroxy-2-methyl-azetidin-1-yl]-5,6-dihydrocyclopenta[d]pyrimidin-4-yl]-3-ethyl-spiro[imidazolidine-5,1′-indane]-2,4-dione]
11 | 1330 | 254 | C[C@H]1CCN1c1nc2c(c(-c3cn(C4COC4)nn3)n1)CCC2 [Example 704, 2-[(2S)-2-methylazetidin-1-yl]-4-[1-(oxetan-3-yl)triazol-4-yl]-6,7-dihydro-5H-cyclopenta[d]pyrimidine]
12 | 366 | 67.2 | N#CC1CCN1c1nc(-c2ccc(C(N)=O)cc2)c2c(n1)C(F)(F)CC2 (stereo not drawn) [Example 706, 4-(2-(2-cyanoazetidin-1-yl)-7,7-difluoro-6,7-dihydro-5H-cyclopenta[d]pyrimidin-4-yl)benzamide]
13 | 330 | 43.4 | N#C[C@H]1CCN1c1nc(-c2ccc(C(N)=O)cc2)c2c(n1)C(F)(F)CC2 [Example 707, (R)-4-(2-(2-cyanoazetidin-1-yl)-7,7-difluoro-6,7-dihydro-5H-cyclopenta[d]pyrimidin-4-yl)benzamide]
14 | > 5000 | > 5000 | N#CC1CN(c2nc(-c3ccc(C(N)=O)cc3)c3c(n2)C(F)(F)CC3)C1 [Example 708, 4-(2-(3-cyanoazetidin-1-yl)-7,7-difluoro-6,7-dihydro-5H-cyclopenta[d]pyrimidin-4-yl)benzamide]
15 | > 5000 | > 5000 | CS(=O)(=O)c1cccc(-c2nc(N3CCC[C@H]3C#N)nc3c2CCC3)c1 [Example 712, (S)-1-(4-(3-(methylsulfonyl)phenyl)-6,7-dihydro-5H-cyclopenta[d]pyrimidin-2-yl)pyrrolidine-2-carbonitrile]
16 | 4900 | 2340 | CS(=O)(=O)c1cccc(-c2nc(N3CCC[C@@H]3C#N)nc3c2CCC3)c1 [Example 713, (R)-1-(4-(3-(methylsulfonyl)phenyl)-6,7-dihydro-5H-cyclopenta[d]pyrimidin-2-yl)pyrrolidine-2-carbonitrile]
17 | > 5000 | > 5000 | CC1(C#N)CCN1c1nc2c(c(-c3cccc(S(C)(=O)=O)c3)n1)CCC2 (stereo not drawn) [Example 714, 2-methyl-1-(4-(3-(methylsulfonyl)phenyl)-6,7-dihydro-5H-cyclopenta[d]pyrimidin-2-yl)azetidine-2-carbonitrile]
18 | 52.1 | 22.2 | C[C@H]1CCN1c1nc2c(c(-c3ccc4nc(N)oc4c3)n1)CCC2 [Example 728, (S)-6-(2-(2-methylazetidin-1-yl)-6,7-dihydro-5H-cyclopenta[d]pyrimidin-4-yl)benzo[d]oxazol-2-amine]
19 | 5000 | 2390 | NC(=O)c1ccc(-c2nc(N3CCC34COC4)nc3c2CCC3)cc1 [Example 730, 4-(2-(6-oxa-1-azaspiro[3.3]heptan-1-yl)-6,7-dihydro-5H-cyclopenta[d]pyrimidin-4-yl)benzamide]
20 | 250 | 5.2 | C[C@H]1CCN1c1nc2c(c(-c3ccc4[nH]c(N)nc4c3)n1)CCC2 [Example 731, (S)-5-(2-(2-methylazetidin-1-yl)-6,7-dihydro-5H-cyclopenta[d]pyrimidin-4-yl)-1H-benzo[d]imidazol-2-amine]
21 | 361 | 87.9 | C[C@H]1CCN1c1nc2c(c(-c3cnc(N)nc3)n1)CCC2 [Example 732, (S)-5-(2-(2-methylazetidin-1-yl)-6,7-dihydro-5H-cyclopenta[d]pyrimidin-4-yl)pyrimidin-2-amine]
22 | 124 | 49.8 | C[C@H]1CCN1c1nc2c(c(-c3ccc4sc(N)nc4c3)n1)CCC2 [Example 733, (S)-5-(2-(2-methylazetidin-1-yl)-6,7-dihydro-5H-cyclopenta[d]pyrimidin-4-yl)benzo[d]thiazol-2-amine]
23 | 91.1 | 72.3 | C[C@H]1CCN1c1nc2c(c(-c3ccc4nc(N)sc4c3)n1)CCC2 [Example 734, (S)-6-(2-(2-methylazetidin-1-yl)-6,7-dihydro-5H-cyclopenta[d]pyrimidin-4-yl)benzo[d]thiazol-2-amine]
24 | 34.9 | 21 | C[C@H]1CCN1c1nc2c(c(-c3ccc4oc(N)nc4c3)n1)CCC2 [Example 736, (S)-5-(2-(2-methylazetidin-1-yl)-6,7-dihydro-5H-cyclopenta[d]pyrimidin-4-yl)benzo[d]oxazol-2-amine]
25 | 242 | 9.7 | C[C@H]1[C@H](O)CN1c1nc(-c2ccc(C(=O)NCC#N)cc2)c2c(n1)C(F)(F)CC2 [Example 737, N-(cyanomethyl)-4-(7,7-difluoro-2-((2S,3R)-3-hydroxy-2-methylazetidin-1-yl)-6,7-dihydro-5H-cyclopenta[d]pyrimidin-4-yl)benzamide]
26 | 215 | 38.4 | C[C@H]1[C@H](O)CN1c1nc2c(c(-c3cc4c(c(S(N)(=O)=O)c3)OCC4)n1)CCC2 [Example 739, 5-(2-((2S,3R)-3-hydroxy-2-methylazetidin-1-yl)-6,7-dihydro-5H-cyclopenta[d]pyrimidin-4-yl)-2,3-dihydrobenzofuran-7-sulfonamide]
27 | 323 | 40.3 | C[C@@H](NS(C)(=O)=O)c1ccc(-c2nc(N3C[C@@H](O)[C@@H]3C)nc3c2CCC3(F)F)cc1 [Example 740, N-[(1R)-1-[4-[7,7-difluoro-2-[(2S,3R)-3-hydroxy-2-methyl-azetidin-1-yl]-5,6-dihydrocyclopenta[d]pyrimidin-4-yl]phenyl]ethyl]methanesulfonamide]
28 | 224 | 24.9 | C[C@@H](NS(C)(=O)=O)c1cccc(-c2nc(N3C[C@@H](O)[C@@H]3C)nc3c2CCC3(F)F)c1 [Example 741, N-[(1R)-1-[3-[7,7-difluoro-2-[(2S,3R)-3-hydroxy-2-methyl-azetidin-1-yl]-5,6-dihydrocyclopenta[d]pyrimidin-4-yl]phenyl]ethyl]methanesulfonamide]
29 | 4.1 | 1.3 | C[C@H]1CCN1c1nc(-c2cc3c(c(S(N)(=O)=O)c2)OCC3)c2c(n1)C(F)(F)CC2 [Example 742, 5-[7,7-difluoro-2-[(2S)-2-methylazetidin-1-yl]-5,6-dihydrocyclopenta[d]pyrimidin-4-yl]-2,3-dihydrobenzofuran-7-sulfonamide]
30 | 1680 | 1020 | C[C@H]1CCN1c1nc2c(c(-c3ccc(C4(NS(C)(=O)=O)CCC4)cc3)n1)CCC2 [Example 743, N-[1-[4-[2-[(2S)-2-methylazetidin-1-yl]-6,7-dihydro-5H-cyclopenta[d]pyrimidin-4-yl]phenyl]cyclobutyl]methanesulfonamide]
